The values that follow come from patent US11224614B2, “Compositions and methods for increasing iron intake in a mammal” (Solvotrin Therapeutics Limited, priority 2014, dated 2022).

Data set [1] is described as follows: In-vivo gastrointestinal tolerability (modified GSRS, Bristol Stool Chart), cross-over. Set-up: species or system human. The note with it: modified GSRS 0-3, Bristol Stool Chart; p=0.02 and p=0.03. As for the experimental part:
In a separate study using random, blinded, prospective allocation to beads prepared in accordance with the invention or FeSO4.7H2O in identical size 0 gelatin capsules, in-vivo gastrointesinal tolerability was assessed in a cross-over design. The test articles were taken in the morning after fasting for 10 hours with baseline and 2 hour fasting blood draws. After 2 hours fasting, food was taken as normal and over the following 24 hours, a modified Gastrointestinal Symptom Rating Scale (GSRS) was completed. This rates the following symptoms as 0=none, 1=mild, 2=moderate, 3=severe: • Abdominal pain/cramps • Nausea/vomiting • Abdominal bloating • Borborygmus (abdominal rumbling) • Flatulence/wind
In addition the products were taken on 3 consecutive days and the Bristol Stool Chart was used to assess constipation/diarrhoea. Positive score changes from baseline normality (=0) indicated constipation.

Data set [2] is described as follows: In-vivo efficacy: randomised double-blind cross-over, serum iron over 0-6 hours in fasting subjects. The note with it: primary endpoint, p=0.017.
Method: We evaluated the formulation in a randomised, double-blind, controlled with a 28 day cross-over to obtain a minimum of 6 paired evaluable healthy subjects with serum ferritin <100 ng/mL for comparison of the invention versus FeSO4.
In the analyses, comparisons between groups were conducted using paired sample t-tests for continuous variables and Wilcoxon's Rank Order tests for non-normal distributions. Shapiro-Wilks tests for normality were used to confirm assumptions that primary and secondary endpoints in the study population come from a normal distribution. If assumptions of normality were not possible, log-transformation was used or Wilcoxon's Rank Order tests were applied.
Subjects returned to the study site (within two weeks of Visit 1) for the first intervention day (Visit 2), after fasting since 10 pm the previous night. Subjects were pre-randomised into one of the two treatment groups with a washout period of four weeks between treatment phases: • Group 1: beads prepared in accordance with the invention, followed by FeSO4 • Group 2: FeSO4, followed by beads prepared in accordance with the invention
A blood sample was collected immediately after drinking the supplement and at 2 hours, 4 hours and 6 hours after dosing. […] Ferritin and haemoglobin were also assessed. […]
Data set [3] in a line: Simulated intestinal dissolution, pH 6.6 with pancreatin and bile acids. The data set is classed as physicochemical. The conditions noted are these: pH 6.6 over 1 hour, FIG. 5. As to the method:
A solution of iron (II) sulfate in water (10 mM) was serially diluted using pH 1.8 KCl buffer. Aliquots (100 μl) of the diluted solutions were added to a 96-well plate containing 100 μl of 1,10-phenanthroline (5 mM). The plate was read at 490 nm on a multiwall plate reader in order to construct a calibration curve. Dissolution samples were diluted ten-fold typically at pH 1.6 into phenanthroline (5 mM) and the samples read rapidly under N2 blanketing.
A 50 mg quantity of beads was transferred to a vial containing 10M HCl (10 ml) and left overnight at room temperature. The resulting solution was shaken and then a 100 μl aliquot was transferred into 900 μl of 10M HCl. A 100 μl aliquot of the diluted solution was added to a 96-well plate containing 1M sodium thiocyanate (100 μl). Absorbance was measured at 450 nm on a multiwell plate reader. The concentration of the iron III was estimated by reference to a series of iron III standard solutions.
An accurately weighed sample (approximately 50 mg) of microbeads was transferred into a three necked vessel into which had been placed 15 ml pH 6.6 buffers (containing 0.1 M sodium bicarbonate, 10 mg/ml bile acid extract, 1.85 mg/ml pancreatin, adjust to pH 6.6 with 1M HCl) at 37° C. Generally, at 1, 15, 30, 45, 60 and occasionally at 90, 120 min time points, samples were taken for iron (II) and iron (III) measurement. […]

Consider ferrous sulfate [FeSO4], for which the “symptoms scores for abdominal pain/cramps, nausea, flatulence and constipation” value in data set [1] is given as “Significantly higher symptoms scores”. Also, in data set [2], the “serum iron Trough to Peak Differential (TPD) over 0-6 hours, median” value is 9.7 µmol/L. Also, the “iron II and total iron (ferrous and ferric) profile in dissolution” value in data set [3] was “undergoes oxidation and precipitates as ferric hydroxides”.
